Assay results: the supplement of paper PMC10307832

Experiments:
Adavosertib + Trametinib = compound: C=CCn1c(=O)c2cnc(Nc3ccc(N4CCN(C)CC4)cc3)nc2n1-c1cccc(C(C)(C)O)n1 [Adavosertib] + CC(=O)Nc1cccc(-n2c(=O)n(C3CC3)c(=O)c3c(Nc4ccc(I)cc4F)n(C)c(=O)c(C)c32)c1 [Trametinib] (partner 0.02 µM); test: relative viability (nuclei count vs DMSO), 5 days (fraction); higher = more cells survive
Outline: (§1)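 Lung cancer cell lines, seeded in 1536-well plates, were treated the following day by pin tool with a single drug or with five library-drug doses (not always all listed) in √10 steps on top of a fixed anchor-drug dose. Cells were fixed and nuclei stained in one step after 5 days, and nuclei were counted. Relative viability is the nuclei count for treated wells divided by that for vehicle wells, reported as medians of duplicate plates.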

Nelarabine + Dasatinib = compound: COc1nc(N)nc2c1ncn2[C@@H]1O[C@H](CO)[C@@H](O)[C@@H]1O [Nelarabine] + Cc1nc(Nc2ncc(C(=O)Nc3c(C)cccc3Cl)s2)cc(N2CCN(CCO)CC2)n1 [Dasatinib] (partner 0.075 µM); test: as above
Outline: as §1

Cell Line | relative viability (Adavosertib + Trametinib; first compound 0.01 µM) | relative viability (Adavosertib + Trametinib; first compound 0.03162 µM) | relative viability (Adavosertib + Trametinib; first compound 0.1 µM) | relative viability (Adavosertib + Trametinib; first compound 0.3162 µM) | relative viability (Nelarabine + Dasatinib; first compound 0.01 µM) | relative viability (Nelarabine + Dasatinib; first compound 0.03162 µM) | relative viability (Nelarabine + Dasatinib; first compound 0.1 µM) | relative viability (Nelarabine + Dasatinib; first compound 0.3162 µM) | relative viability (Nelarabine + Dasatinib; first compound 1 µM)
HCC-366 | 0.387 | 0.353 | 0.352 | 0.344 | 0.907 | 0.71 | 0.588 | 0.79 | 0.661
HCC-78 | 0.859 | 0.737 | 0.888 | 0.852 | 0.384 | 0.358 | – | 0.459 | 0.37
NCI-H358 | 0.132 | 0.124 | 0.124 | 0.124 | 0.17 | 0.144 | 0.148 | 0.145 | 0.154
NCI-H23 | 0.363 | 0.395 | 0.339 | 0.226 | 1.01 | 0.838 | 0.588 | 0.927 | 0.819
PC-14 | 0.704 | 0.808 | 0.862 | 0.683 | 0.253 | 0.233 | 0.131 | 0.304 | 0.315
SW 900 | 0.682 | 0.892 | 0.957 | 0.696 | 0.555 | 0.439 | 0.524 | 0.623 | 0.639
NCI-H1650 | 0.587 | 0.616 | 0.539 | 0.574 | 0.265 | 0.329 | 0.27 | 0.305 | 0.329
H3255 | 0.576 | 0.591 | 0.616 | 0.634 | – | 0.427 | 0.367 | 0.345 | 0.309
NCI-H1563 | – | – | – | – | 0.458 | 0.437 | 0.427 | 0.42 | 0.406
UMC-11 | 0.74 | 0.633 | 0.743 | 0.615 | 0.698 | 0.463 | 0.575 | 0.541 | 0.608
LOU-NH91 | 0.773 | 0.799 | 0.828 | 0.774 | 0.628 | 0.591 | 0.436 | 0.585 | 0.605
HCC-44 | 1.08 | 1.05 | 1.19 | 1.12 | – | – | – | – | –
NCI-H1437 | 0.546 | 0.545 | 0.484 | 0.414 | 0.554 | 0.468 | 0.304 | 0.466 | 0.362
HARA | 0.696 | 0.729 | 0.75 | 0.611 | 0.279 | 0.339 | 0.236 | 0.329 | 0.436
NCI-H2085 | 0.544 | 0.568 | 0.435 | 0.524 | 0.231 | 0.26 | 0.177 | 0.192 | 0.199
NCI-H322M | 0.48 | 0.489 | 0.471 | 0.389 | 0.268 | 0.252 | 0.231 | 0.273 | 0.246
NCI-H1355 | 0.442 | 0.373 | 0.445 | 0.457 | 0.849 | 0.573 | 0.564 | 0.744 | 0.706
COR-L 105 | 0.436 | 0.463 | 0.48 | 0.347 | 0.339 | 0.402 | 0.259 | 0.351 | 0.319
201T | 0.657 | 0.707 | 0.736 | 0.718 | 0.602 | 0.57 | 0.429 | 0.577 | 0.625

Cell Line | relative viability (Adavosertib + Trametinib; first compound 0.01 µM) | relative viability (Adavosertib + Trametinib; first compound 0.03162 µM) | relative viability (Adavosertib + Trametinib; first compound 0.1 µM) | relative viability (Adavosertib + Trametinib; first compound 0.3162 µM) | relative viability (Nelarabine + Dasatinib; first compound 0.01 µM) | relative viability (Nelarabine + Dasatinib; first compound 0.03162 µM) | relative viability (Nelarabine + Dasatinib; first compound 0.1 µM) | relative viability (Nelarabine + Dasatinib; first compound 0.3162 µM) | relative viability (Nelarabine + Dasatinib; first compound 1 µM)
NCI-H2342 | 0.922 | 0.829 | 0.776 | 0.848 | 0.324 | 0.302 | 0.282 | 0.346 | 0.29
NCI-H838 | 0.488 | 0.531 | 0.503 | 0.582 | 0.276 | 0.217 | 0.225 | 0.321 | 0.374
NCI-H522 | 0.797 | 0.75 | 0.736 | 0.653 | 0.863 | 0.866 | 1.07 | 0.801 | 0.993
CAL-12T | 0.334 | 0.338 | 0.312 | 0.29 | 0.426 | 0.484 | 0.16 | 0.51 | 0.482
NCI-H1755 | 0.818 | 0.78 | 0.818 | 0.744 | 0.457 | 0.349 | 0.135 | 0.506 | 0.479
LCLC-103H | 0.641 | 0.688 | 0.668 | 0.7 | 0.458 | 0.45 | 0.342 | 0.499 | 0.471
NCI-H1666 | 0.797 | 0.782 | 1.02 | 0.813 | 0.835 | 0.855 | 0.719 | 0.878 | 0.934
LC-2-ad | 0.865 | 0.908 | 0.914 | 1.04 | 0.556 | 0.647 | 0.463 | 0.529 | 0.611
PC-3 [JPC-3] | – | 0.667 | 0.761 | 0.746 | 1.03 | 1.01 | 0.938 | 1.04 | 0.97
A-427 | 0.771 | 0.808 | 0.805 | 0.565 | 0.721 | 0.662 | 0.753 | 0.736 | 0.789
NCI-H1651 | 0.841 | 0.85 | 0.864 | 0.871 | 0.4 | 0.372 | 0.387 | 0.355 | 0.368
SK-LU-1 | 0.611 | 0.505 | 0.509 | 0.316 | 0.179 | 0.105 | 0.142 | 0.171 | 0.165
BEN | 1.02 | 1 | 1.27 | 1.18 | 0.296 | 0.308 | 0.353 | 0.386 | 0.298
NCI-H1915 | 0.329 | 0.338 | 0.322 | 0.33 | 0.337 | 0.36 | 0.281 | 0.296 | 0.364
COR-L23 | 0.622 | 0.577 | 0.565 | 0.251 | 0.611 | 0.442 | 0.502 | 0.543 | 0.402
NCI-H1975 | 0.303 | 0.309 | 0.327 | 0.415 | 0.431 | 0.343 | 0.316 | 0.434 | 0.462
RERF-LC-KJ | 0.782 | 0.853 | 0.851 | 0.929 | 0.824 | 0.884 | 0.716 | 0.808 | 0.761
NCI-H2228 | – | 0.498 | 0.465 | 0.404 | 0.725 | 0.481 | – | 0.629 | 0.559
